Common to all, as to assay: kinase selectivity panel
What all share (type): biochemical

One experiment concerns the target T1, PKCθ (Homo sapiens, UniProt Q04759).
T1 construct: purchased Eurofins Pharma Discovery Services (KinaseProfiler; Cerep BioPrint panel)
As to conditions: read-out: percentage of control activity (POC), PKCθ. An outline of the steps:
(§1)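 Tested at 10 μM in duplicate within a panel of 125 representative kinases. For selected activities, IC50 values were then determined from 9 concentrations, each run in duplicate.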

Another experiment addresses T2, EphA5 (Homo sapiens, UniProt P54756).
T2 construct: purchased Eurofins Pharma Discovery Services (KinaseProfiler; Cerep BioPrint panel)
As to conditions: read-out: percentage of control activity (POC), EphA5. An outline of the steps: as §1

In the next experiment the target is T3, CDK9/cyclin T1 (Homo sapiens, UniProt P50750).
T3 construct: purchased Eurofins Pharma Discovery Services (KinaseProfiler; Cerep BioPrint panel)
The following applies: read-out: percentage of control activity (POC), CDK9/cyclin T1. An outline of the steps: as §1

A further experiment deals with T4, JNK1α1 (Homo sapiens, UniProt P45983).
T4 construct: purchased Eurofins Pharma Discovery Services (KinaseProfiler; Cerep BioPrint panel)
As to conditions: read-out: percentage of control activity (POC), JNK1α1. An outline of the steps:
as §1

The target of a further experiment is T5, TrkA (Homo sapiens, UniProt P04629).
T5 construct: Eurofins Pharma Discovery Services (contract assay service)
As to conditions: for remaining activity at 10 µM: read-out: percentage of control activity (POC), TrkA. An outline of the steps: as §1

The target in the next experiment is T6, IKKε (Homo sapiens, UniProt Q14164).
T6 construct: purchased Eurofins Pharma Discovery Services (KinaseProfiler; Cerep BioPrint panel)
T6 sequence (Q14164 1-716): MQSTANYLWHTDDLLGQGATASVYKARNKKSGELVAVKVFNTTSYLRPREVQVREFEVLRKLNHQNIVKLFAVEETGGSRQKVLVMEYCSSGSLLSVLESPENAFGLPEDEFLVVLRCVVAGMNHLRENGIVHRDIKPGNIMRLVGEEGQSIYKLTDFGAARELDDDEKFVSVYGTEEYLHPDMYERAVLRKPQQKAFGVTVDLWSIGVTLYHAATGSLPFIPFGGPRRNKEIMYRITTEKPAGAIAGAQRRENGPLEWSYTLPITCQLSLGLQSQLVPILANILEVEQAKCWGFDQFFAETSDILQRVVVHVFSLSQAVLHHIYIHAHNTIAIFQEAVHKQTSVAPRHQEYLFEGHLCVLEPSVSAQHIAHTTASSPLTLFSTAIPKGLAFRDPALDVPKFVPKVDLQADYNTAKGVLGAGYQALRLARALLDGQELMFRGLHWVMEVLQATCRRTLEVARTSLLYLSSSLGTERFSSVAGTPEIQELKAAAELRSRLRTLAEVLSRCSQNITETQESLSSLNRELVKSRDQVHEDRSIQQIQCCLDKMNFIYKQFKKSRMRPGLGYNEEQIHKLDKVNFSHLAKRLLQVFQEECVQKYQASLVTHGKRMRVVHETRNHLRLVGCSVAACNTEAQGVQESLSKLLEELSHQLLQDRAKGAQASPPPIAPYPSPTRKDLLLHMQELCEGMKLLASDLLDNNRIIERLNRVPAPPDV
The following applies: read-out: percentage of control activity (POC), IKKε. An outline of the steps:
as §1

The target in another experiment is T7, IRAK1 (Homo sapiens, UniProt P51617).
T7 construct: purchased Eurofins Pharma Discovery Services (KinaseProfiler; Cerep BioPrint panel)
The following applies: read-out: percentage of control activity (POC), IRAK1. An outline of the steps: as §1

The next experiment concerns the target T8, mTOR (Homo sapiens, UniProt P42345).
T8 construct: Eurofins Pharma Discovery Services (contract assay service)
As to conditions: for remaining activity at 10 µM: read-out: percentage of control activity (POC), mTOR. An outline of the steps: as §1

Another experiment addresses T9, Rsk1 (Homo sapiens, UniProt Q15418).
T9 construct: purchased Eurofins Pharma Discovery Services (KinaseProfiler; Cerep BioPrint panel)
As to conditions: read-out: percentage of control activity (POC), Rsk1. An outline of the steps: as §1

A further experiment addresses T10, ROCK-I (Homo sapiens, UniProt Q13464).
T10 construct: purchased Eurofins Pharma Discovery Services (KinaseProfiler; Cerep BioPrint panel)
The following applies: read-out: percentage of control activity (POC), ROCK-I. An outline of the steps:
as §1

The target in the next experiment is T11, JAK1 (Homo sapiens, UniProt P23458).
T11 construct: purchased Eurofins Pharma Discovery Services (KinaseProfiler; Cerep BioPrint panel)
As to conditions: read-out: percentage of control activity (POC), JAK1. An outline of the steps:
as §1

The target of another experiment is T12, CDK6/cyclinD3 (Homo sapiens, UniProt Q00534).
T12 construct: purchased Eurofins Pharma Discovery Services (KinaseProfiler; Cerep BioPrint panel)
The following applies: read-out: percentage of control activity (POC), CDK6/cyclinD3. An outline of the steps:
as §1

The next experiment deals with T13, CK1γ1 (Homo sapiens, UniProt Q9HCP0).
T13 construct: purchased Eurofins Pharma Discovery Services (KinaseProfiler; Cerep BioPrint panel)
As to conditions: read-out: percentage of control activity (POC), CK1γ1. An outline of the steps: as §1

A further experiment addresses T14, ROCK-II (Homo sapiens, UniProt O75116).
T14 construct: purchased Eurofins Pharma Discovery Services (KinaseProfiler; Cerep BioPrint panel)
The following applies: read-out: percentage of control activity (POC), ROCK-II. An outline of the steps: as §1

Another experiment has as its target T15, p70S6K (Homo sapiens, UniProt P23443).
T15 construct: purchased Eurofins Pharma Discovery Services (KinaseProfiler; Cerep BioPrint panel)
As to conditions: read-out: percentage of control activity (POC), p70S6K. An outline of the steps:
as §1

A further experiment deals with T16, Pyk2 (Homo sapiens, UniProt Q14289).
T16 construct: purchased Eurofins Pharma Discovery Services (KinaseProfiler; Cerep BioPrint panel)
The following applies: read-out: percentage of control activity (POC), Pyk2. An outline of the steps: as §1

A further experiment addresses T17, Yes (Homo sapiens, UniProt P07947).
T17 construct: Eurofins Pharma Discovery Services (contract assay service)
The following applies: for remaining activity at 10 µM: read-out: percentage of control activity (POC), Yes. An outline of the steps:
as §1

In another experiment the target is T18, SAPK3 (Homo sapiens, UniProt P53778).
T18 construct: purchased Eurofins Pharma Discovery Services (KinaseProfiler; Cerep BioPrint panel)
T18 sequence (P53778 1-367): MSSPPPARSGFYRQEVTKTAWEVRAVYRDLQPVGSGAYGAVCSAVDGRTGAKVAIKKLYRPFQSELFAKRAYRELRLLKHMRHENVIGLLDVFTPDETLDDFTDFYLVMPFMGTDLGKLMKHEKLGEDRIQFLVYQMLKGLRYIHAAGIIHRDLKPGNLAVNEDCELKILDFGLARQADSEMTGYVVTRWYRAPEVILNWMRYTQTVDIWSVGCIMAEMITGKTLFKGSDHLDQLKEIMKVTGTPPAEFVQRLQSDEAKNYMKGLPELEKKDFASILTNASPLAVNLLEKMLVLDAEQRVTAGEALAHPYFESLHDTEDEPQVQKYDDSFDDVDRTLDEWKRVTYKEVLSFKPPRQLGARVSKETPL
As to conditions: read-out: percentage of control activity (POC), SAPK3. An outline of the steps:
as §1

The target of a further experiment is T19, PKCγ (Homo sapiens, UniProt P05129).
T19 construct: purchased Eurofins Pharma Discovery Services (KinaseProfiler; Cerep BioPrint panel)
As to conditions: read-out: percentage of control activity (POC), PKCγ. An outline of the steps:
as §1

Another experiment concerns the target T20, SRPK1 (Homo sapiens, UniProt Q96SB4).
T20 construct: purchased Eurofins Pharma Discovery Services (KinaseProfiler; Cerep BioPrint panel)
As to conditions: read-out: percentage of control activity (POC), SRPK1. An outline of the steps: as §1

SMILES strings stand for the structures. Several values for one entry are separate records, joined by “and”; a condition that tells them apart may be missing. Equal entries are not always repeated.

Experimental findings from article PMC5761851, “Application of a phenotypic drug discovery strategy to identify biological and chemical starting points for inhibition of TSLP production in lung epithelial cells” (PLoS ONE, 2018) are described below.

T5 sequence (P04629 33-796, species assumed): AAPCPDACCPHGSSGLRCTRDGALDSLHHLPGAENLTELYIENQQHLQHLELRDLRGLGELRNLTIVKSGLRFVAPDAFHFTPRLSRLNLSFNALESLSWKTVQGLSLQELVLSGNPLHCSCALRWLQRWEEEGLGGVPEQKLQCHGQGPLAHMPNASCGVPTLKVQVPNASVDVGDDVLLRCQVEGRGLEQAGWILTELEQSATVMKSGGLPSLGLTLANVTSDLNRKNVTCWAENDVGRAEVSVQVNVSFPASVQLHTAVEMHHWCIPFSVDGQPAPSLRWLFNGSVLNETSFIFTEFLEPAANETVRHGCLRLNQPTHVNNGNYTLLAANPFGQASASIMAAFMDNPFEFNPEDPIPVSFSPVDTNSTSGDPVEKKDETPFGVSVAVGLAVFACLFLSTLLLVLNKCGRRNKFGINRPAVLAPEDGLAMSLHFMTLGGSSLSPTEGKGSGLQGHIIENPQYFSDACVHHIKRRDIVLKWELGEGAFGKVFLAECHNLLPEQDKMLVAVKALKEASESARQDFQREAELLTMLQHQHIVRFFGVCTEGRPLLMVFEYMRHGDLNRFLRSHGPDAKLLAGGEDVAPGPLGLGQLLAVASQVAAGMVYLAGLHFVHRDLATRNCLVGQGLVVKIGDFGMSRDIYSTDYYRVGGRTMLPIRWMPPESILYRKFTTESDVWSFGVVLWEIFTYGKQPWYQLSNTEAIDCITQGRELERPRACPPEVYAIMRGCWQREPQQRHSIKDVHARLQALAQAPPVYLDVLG
T13 sequence (Q9HCP0 whole entry): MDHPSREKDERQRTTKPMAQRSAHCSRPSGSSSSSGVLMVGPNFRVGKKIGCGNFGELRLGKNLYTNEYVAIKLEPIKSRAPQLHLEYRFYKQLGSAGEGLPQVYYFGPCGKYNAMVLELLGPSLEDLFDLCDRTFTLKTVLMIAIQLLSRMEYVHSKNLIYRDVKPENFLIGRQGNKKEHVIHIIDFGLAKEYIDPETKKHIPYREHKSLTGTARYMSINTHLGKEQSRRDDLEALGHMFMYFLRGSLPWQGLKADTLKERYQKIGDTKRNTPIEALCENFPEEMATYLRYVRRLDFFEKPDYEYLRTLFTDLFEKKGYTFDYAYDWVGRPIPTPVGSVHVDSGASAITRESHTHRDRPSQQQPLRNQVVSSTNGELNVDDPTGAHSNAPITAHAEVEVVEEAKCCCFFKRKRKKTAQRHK
T3 sequence (P50750 whole entry): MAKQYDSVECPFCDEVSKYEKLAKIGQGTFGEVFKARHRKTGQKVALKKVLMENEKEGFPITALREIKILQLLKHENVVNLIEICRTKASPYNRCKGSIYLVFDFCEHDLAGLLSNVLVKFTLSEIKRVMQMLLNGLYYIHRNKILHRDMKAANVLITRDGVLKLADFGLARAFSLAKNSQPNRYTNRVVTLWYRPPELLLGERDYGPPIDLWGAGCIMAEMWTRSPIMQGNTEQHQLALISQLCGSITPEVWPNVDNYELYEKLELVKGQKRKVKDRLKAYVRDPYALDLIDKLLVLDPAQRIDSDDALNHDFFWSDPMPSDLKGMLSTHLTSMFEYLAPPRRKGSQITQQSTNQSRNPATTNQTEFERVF
T3 sequence (O60563 whole entry partner): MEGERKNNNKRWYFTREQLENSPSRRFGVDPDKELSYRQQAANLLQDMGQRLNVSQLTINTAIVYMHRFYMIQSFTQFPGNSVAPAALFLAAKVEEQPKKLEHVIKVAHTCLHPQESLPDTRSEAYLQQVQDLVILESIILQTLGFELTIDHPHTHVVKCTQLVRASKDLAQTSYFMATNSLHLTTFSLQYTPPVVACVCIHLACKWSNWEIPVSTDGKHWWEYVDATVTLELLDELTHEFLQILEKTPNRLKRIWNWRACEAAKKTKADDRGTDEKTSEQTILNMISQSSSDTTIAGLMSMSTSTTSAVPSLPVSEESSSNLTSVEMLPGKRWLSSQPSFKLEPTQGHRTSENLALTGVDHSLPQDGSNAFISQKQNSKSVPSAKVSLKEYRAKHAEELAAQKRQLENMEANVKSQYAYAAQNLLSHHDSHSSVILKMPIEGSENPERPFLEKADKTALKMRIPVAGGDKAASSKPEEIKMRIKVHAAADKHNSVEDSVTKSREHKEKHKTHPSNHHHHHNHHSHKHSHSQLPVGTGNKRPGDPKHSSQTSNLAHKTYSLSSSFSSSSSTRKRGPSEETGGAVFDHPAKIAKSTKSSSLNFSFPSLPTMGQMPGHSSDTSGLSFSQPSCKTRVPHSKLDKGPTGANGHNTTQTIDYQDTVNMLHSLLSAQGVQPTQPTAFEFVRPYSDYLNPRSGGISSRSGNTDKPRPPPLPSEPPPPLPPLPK
T17 sequence (P07947 whole entry, species assumed): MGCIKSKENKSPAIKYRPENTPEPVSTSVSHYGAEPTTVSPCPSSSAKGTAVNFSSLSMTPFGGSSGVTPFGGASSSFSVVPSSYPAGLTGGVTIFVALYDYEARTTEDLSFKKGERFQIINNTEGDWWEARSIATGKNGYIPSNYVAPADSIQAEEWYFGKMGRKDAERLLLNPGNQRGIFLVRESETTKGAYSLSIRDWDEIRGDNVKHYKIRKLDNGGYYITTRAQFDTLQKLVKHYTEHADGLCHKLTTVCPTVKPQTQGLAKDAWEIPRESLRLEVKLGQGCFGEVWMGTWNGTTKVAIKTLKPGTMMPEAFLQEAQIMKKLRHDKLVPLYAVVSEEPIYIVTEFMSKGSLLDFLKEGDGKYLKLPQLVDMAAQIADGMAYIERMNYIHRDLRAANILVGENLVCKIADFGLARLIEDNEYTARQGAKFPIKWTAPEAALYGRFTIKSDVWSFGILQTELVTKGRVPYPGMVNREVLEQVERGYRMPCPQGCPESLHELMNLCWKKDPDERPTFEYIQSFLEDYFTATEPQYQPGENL
T7 sequence (P51617 whole entry): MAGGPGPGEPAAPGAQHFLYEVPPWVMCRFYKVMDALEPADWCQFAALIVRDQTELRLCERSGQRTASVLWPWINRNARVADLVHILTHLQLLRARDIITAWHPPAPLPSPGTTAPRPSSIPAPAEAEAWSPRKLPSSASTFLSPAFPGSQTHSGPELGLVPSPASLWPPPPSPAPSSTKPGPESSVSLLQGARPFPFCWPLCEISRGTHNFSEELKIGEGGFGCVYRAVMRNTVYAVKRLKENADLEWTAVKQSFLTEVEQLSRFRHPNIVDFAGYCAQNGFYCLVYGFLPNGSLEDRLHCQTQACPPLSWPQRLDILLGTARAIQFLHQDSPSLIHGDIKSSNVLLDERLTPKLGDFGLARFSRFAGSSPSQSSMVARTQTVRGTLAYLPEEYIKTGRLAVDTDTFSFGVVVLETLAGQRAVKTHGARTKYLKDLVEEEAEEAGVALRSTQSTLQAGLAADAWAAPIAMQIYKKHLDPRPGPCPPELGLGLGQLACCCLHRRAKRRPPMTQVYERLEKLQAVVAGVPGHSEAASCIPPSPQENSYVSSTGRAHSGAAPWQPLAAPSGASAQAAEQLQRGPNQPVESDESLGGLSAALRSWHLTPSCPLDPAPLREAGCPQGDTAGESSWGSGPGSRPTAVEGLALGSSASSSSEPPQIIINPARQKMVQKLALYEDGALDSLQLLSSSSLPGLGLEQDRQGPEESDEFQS
T16 sequence (Q14289 whole entry): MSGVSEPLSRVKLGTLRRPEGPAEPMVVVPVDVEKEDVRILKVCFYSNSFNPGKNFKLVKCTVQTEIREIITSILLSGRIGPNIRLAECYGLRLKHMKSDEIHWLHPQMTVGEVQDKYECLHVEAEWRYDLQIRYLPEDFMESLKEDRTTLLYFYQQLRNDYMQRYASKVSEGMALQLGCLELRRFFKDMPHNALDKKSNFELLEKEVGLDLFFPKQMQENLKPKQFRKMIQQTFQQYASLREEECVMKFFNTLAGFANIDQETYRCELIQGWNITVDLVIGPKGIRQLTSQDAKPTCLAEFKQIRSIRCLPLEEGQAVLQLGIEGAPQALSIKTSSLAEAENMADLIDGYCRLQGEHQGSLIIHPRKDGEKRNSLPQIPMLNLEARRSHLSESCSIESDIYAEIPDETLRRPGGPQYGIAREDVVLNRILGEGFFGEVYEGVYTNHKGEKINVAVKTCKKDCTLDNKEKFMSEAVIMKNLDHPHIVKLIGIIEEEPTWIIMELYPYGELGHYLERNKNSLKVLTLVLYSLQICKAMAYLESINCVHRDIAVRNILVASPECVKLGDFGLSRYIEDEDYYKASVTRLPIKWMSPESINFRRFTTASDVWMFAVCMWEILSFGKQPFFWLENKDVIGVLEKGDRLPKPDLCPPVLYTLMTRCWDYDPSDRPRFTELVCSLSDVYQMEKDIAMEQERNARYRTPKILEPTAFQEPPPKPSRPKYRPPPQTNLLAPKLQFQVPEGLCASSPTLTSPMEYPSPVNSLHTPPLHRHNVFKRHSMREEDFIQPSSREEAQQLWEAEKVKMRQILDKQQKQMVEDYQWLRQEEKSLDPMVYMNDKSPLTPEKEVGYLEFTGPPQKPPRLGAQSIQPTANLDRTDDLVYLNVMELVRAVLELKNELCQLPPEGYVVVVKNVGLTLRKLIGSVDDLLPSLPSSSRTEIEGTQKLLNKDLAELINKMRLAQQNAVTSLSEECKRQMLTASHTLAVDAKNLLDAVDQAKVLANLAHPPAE
T4 sequence (P45983 1-384 isoform P45983-2): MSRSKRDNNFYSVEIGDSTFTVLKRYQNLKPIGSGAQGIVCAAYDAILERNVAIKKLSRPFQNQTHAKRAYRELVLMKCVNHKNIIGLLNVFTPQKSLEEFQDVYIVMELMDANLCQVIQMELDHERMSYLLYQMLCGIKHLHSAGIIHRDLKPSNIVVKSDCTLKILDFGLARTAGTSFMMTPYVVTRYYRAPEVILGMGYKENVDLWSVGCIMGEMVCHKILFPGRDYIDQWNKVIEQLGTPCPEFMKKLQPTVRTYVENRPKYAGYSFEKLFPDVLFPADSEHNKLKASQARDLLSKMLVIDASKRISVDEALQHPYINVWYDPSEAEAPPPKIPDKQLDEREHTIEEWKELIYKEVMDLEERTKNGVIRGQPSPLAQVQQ

Take `CC(C)(C)N1CCC(c2cc(-c3ccc(F)cc3Cl)c3cc[n+]([O-])c(-c4c(Cl)cccc4Cl)c3n2)CC1` [compound 2]: the remaining activity at 10 µM is 91% on PKCθ; 95% on EphA5; 96% on CDK9/cyclin T1; 97% at JNK1α1; 91% on TrkA (10 μM); 101% on IKKε. The remaining activity at 10 µM turned out to be 102% at IRAK1; 101% at mTOR (10 μM); 104% at Rsk1; 97% on ROCK-I; 91% at JAK1; 102% on CDK6/cyclinD3. Moreover, the remaining activity at 10 µM at CK1γ1 amounted to 101%; on ROCK-II, 100%; on p70S6K it was 104%; at Pyk2, 99%; on Yes (10 μM), 107%; on SAPK3, 75%. For the same compound, the remaining activity at 10 µM on PKCγ was 117%; at SRPK1 it was 103%.

Consider `Cc1ccc(C(=O)NCC2CC2)cc1-c1ccc2c(c1)NC(=O)C21CCCC1` [compound 3], for which the remaining activity at 10 µM on PKCθ worked out at 97%; at EphA5, 99%; at CDK9/cyclin T1, 85%; at JNK1α1, 96%; on TrkA (10 μM), 67%; on IKKε, 102%. The remaining activity at 10 µM turned out to be 91% at IRAK1; 99% at mTOR (10 μM); 100% at Rsk1; 98% at ROCK-I; 93% at JAK1; 97% on CDK6/cyclinD3. In addition, the remaining activity at 10 µM came out at 98% on CK1γ1; 96% at ROCK-II; 95% at p70S6K; 99% on Pyk2; 100% at Yes (10 μM); 78% at SAPK3. Besides, the remaining activity at 10 µM at PKCγ worked out at 104%; on SRPK1, 92%.

As usually defined, the inhibition is the share of the control response that was lost under treatment. Usually IC50 stands for the concentration needed to halve the response being measured. Take `Cn1cc(-c2cccc(-c3nc(C(=O)NC4C5CC6CC4CC(O)(C6)C5)c(N)nc3N)c2)cn1` (stereo not shown) [compound 4]: the remaining activity at 10 µM on PKCθ turned out to be 84%; at EphA5 it was 93%; at CDK9/cyclin T1 it was 95%; at JNK1α1, 92%; on TrkA (10 μM) it was 14%; on IKKε, 96%. The remaining activity at 10 µM at IRAK1 was 89%; at mTOR (10 μM), 13%; on Rsk1 it was 87%; at ROCK-I it was 91%; on JAK1, 86%; at CDK6/cyclinD3, 93%. Also, the remaining activity at 10 µM at CK1γ1 is 89%; on ROCK-II, 85%; on p70S6K it was 92%; at Pyk2 it was 86%; at Yes (10 μM), 23%; at SAPK3, 92%. Also, the remaining activity at 10 µM at PKCγ came to 96%; on SRPK1, 92%. In addition, the figures for the inhibition at 10 µM at TrkA (10 μM), at mTOR (10 μM) and on Yes (10 μM) were 86%, 87% and 77%, respectively. For the same compound, the IC50 on TrkA (biochemical dose response, duplicate, read-out: Inhibition of indicated activity (IC50, μM): TrkA) is 3.23 µM; at mTOR (biochemical dose response, duplicate, read-out: Inhibition of indicated activity (IC50, μM): mTOR) it was ~1 µM and 0.964 µM; on Yes (biochemical dose response, duplicate, read-out: Inhibition of indicated activity (IC50, μM): Yes), 2.39 µM.

Take `CS(=O)(=O)N1CCN(c2ccc(Nc3ncc(C(N)=O)c(NC4CC4)n3)cc2)CC1` [compound 5]: the remaining activity at 10 µM on PKCθ is 26%; on EphA5 it was 56%; on CDK9/cyclin T1 it was 56%; at JNK1α1, 3%; on TrkA (10 μM), 1%; on IKKε it was 0%. The remaining activity at 10 µM is 20% at IRAK1; 96% on mTOR (10 μM); 1% at Rsk1; 43% on ROCK-I; -2% at JAK1; 23% on CDK6/cyclinD3. The remaining activity at 10 µM at CK1γ1 was 25%; on ROCK-II it was 3%; at p70S6K, 54%; on Pyk2, 4%; on Yes (10 μM), 4%; on SAPK3 it was 64%. For the same compound, the figures for the remaining activity at 10 µM at PKCγ and at SRPK1 were 4% and 83%, respectively.

In the case of `COc1c(NC(=O)c2ccc(C)c(-c3nnc4c(NCC(C)(C)C)nccn34)c2)cc(C(C)(C)C)cc1NS(C)(=O)=O` [compound 7, reference compound], the remaining activity at 10 µM on PKCθ came out at 98%; on EphA5 it was 65%; on CDK9/cyclin T1 it was 97%; at JNK1α1 it was 96%; at TrkA (10 μM), 68%; at IKKε, 100%. For the same compound, the remaining activity at 10 µM at IRAK1 was found to be 95%; on mTOR (10 μM), 96%; on Rsk1 it was 132%; on ROCK-I it was 108%; on JAK1, 101%; at CDK6/cyclinD3, 100%. Moreover, the remaining activity at 10 µM was found to be 98% at CK1γ1; 93% on ROCK-II; 102% on p70S6K; 87% at Pyk2; 99% on Yes (10 μM); 67% on SAPK3. In addition, the remaining activity at 10 µM on PKCγ amounted to 105%; at SRPK1, 100%.
